The nature of this series: Stability of resveratrol in ultrafiltration filtrates concentrated by reverse osmosis and held at pH 11. The series is classed as physicochemical. The following applies: held at pH 11 for 3 to 7 days at 5° C. to 8° C., at production vs 7 days after. On the procedure:
It is advantageous for process intermediate materials to have a high degree of stability, so that they can be processed over time without the need for immediate processing on equipment with high capacity. The various filtrates from the ultrafiltration tests were concentrated by reverse osmosis and held at pH 11 for 3 to 7 days at 5° C. to 8° C. to evaluate their stability. The product decomposition is a comparison between the composition at the time of production and that measured 7 days after production. The stability improved monotonically as the molecular weight cutoff of the ultrafilter was decreased from 100 kDa to 25 kDa to 5 kDa. 11%, 7%, and 5% of the resveratrol was decomposed in the respective tests.

“And” between values parts separate entries of the source, which are not always exact repeats. Equal values may be shown once.

Take `Oc1ccc(/C=C/c2cc(O)cc(O)c2)cc1` [resveratrol, 3,5,4′-trihydroxy-trans-stilbene]: the “Product Decomposition” value runs as follows: (filtrate from GR40PP 100 kDa ultrafilter, broth EFSC4687) 11.5%; (filtrate from GR40PP 100 kDa ultrafilter, broth EFSC 21811) 11% and 10.7%; (filtrate from GR60PP 25 kDa ultrafilter) 7%; (filtrate from GR90PP 5 kDa ultrafilter) 5%.

The values are drawn from US11136283B2, “Recovering and purifying resveratrol produced by microbial fermentation” (EVOLVA SA, priority 2017, dated 2021).
